From patent US10245261B2, “Substituted indol-5-ol derivatives and their therapeutic applications” (NantBioScience, Inc., priority 2013, dated 2019)

Experiments:
Assay in all cases: KinaseProfiler kinase assay
Format in all cases: biochemical
[1] = target: PI3 Kinase (p110β/p85β)(m) (Mus musculus, UniProt Q8BTI9)
Outline: (§1)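 Buffer 20 mM MOPS, 1 mM EDTA, 0.01% Brij-35, 5% glycerol, 0.1% β-mercaptoethanol, 1 mg/mL BSA for compound dilution; reaction at pH 7.0 with [γ-33P]ATP, 40 min RT; filtermat/scintillation read-out; 0%/100% set by no-kinase and phosphopeptide wells.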

MKK7β(h) = MKK7β(h) (Homo sapiens, UniProt O14733)
Outline: as §1

PKCδ(h) = PKCδ(h) (Homo sapiens, UniProt Q05655)
Outline: as §1

MAPKAP-K2(h) = MAPKAP-K2(h) (Homo sapiens, UniProt P49137)
Outline: as §1

[2] = target: PI3 Kinase (p113α)(H1047R)/p85α)(m) (Mus musculus, UniProt P42337, H1047R)
Outline: as §1

[3] = target: PI3 Kinase (p110β/p85α)(m) (Mus musculus, UniProt Q8BTI9)
Outline: as §1

PDGFRα(V561D)(h) = PDGFRα(V561D)(h) (Homo sapiens, UniProt P16234, V561D)
Outline: as §1

Met(M1268T)(h) = Met(M1268T)(h) (Homo sapiens, UniProt P08581, M1250T)
Outline: as §1

Arg(m) = Arg(m) (Mus musculus, UniProt Q4JIM5)
Outline: as §1

PKBγ(h) = PKBγ(h) (Homo sapiens, UniProt Q9Y243)
Outline: as §1

Pim-2(h) = Pim-2(h) (Homo sapiens, UniProt Q9P1W9)
Outline: as §1

cKit(V654A)(h) = cKit(V654A)(h) (Homo sapiens, UniProt P10721, V654A)
Outline: as §1

ZIPK(h) = ZIPK(h) (Homo sapiens, UniProt O43293)
Outline: as §1

cKit(V560G)(h) = cKit(V560G)(h) (Homo sapiens, UniProt P10721, V560G)
Outline: as §1

PDGFRα(D842V)(h) = PDGFRα(D842V)(h) (Homo sapiens, UniProt P16234, D842V)
Outline: as §1

FGFR1(V561M)(h) = FGFR1(V561M)(h) (Homo sapiens, UniProt P11362, V561M)
Outline: as §1

HIPK3(h) = HIPK3(h) (Homo sapiens, UniProt Q9H422)
Outline: as §1

Plk1(h) = Plk1(h) (Homo sapiens, UniProt P53350)
Outline: as §1

PRAK(h) = PRAK(h) (Homo sapiens, UniProt Q8IW41)
Outline: as §1

TAO1(h) = TAO1(h) (Homo sapiens, UniProt Q7L7X3)
Outline: as §1

CDK9/cyclin T1(h) = CDK9/cyclin T1(h) (Homo sapiens, UniProt P50750)
Outline: as §1

CDK2/cyclinA(h) = CDK2/cyclinA(h) (Homo sapiens, UniProt P24941)
Outline: as §1

Met(Y1248C)(h) = Met(Y1248C)(h) (Homo sapiens, UniProt P08581, Y1230C)
Outline: as §1

EGFR(T790M, L858R)(h) = EGFR(T790M, L858R)(h) (Homo sapiens, UniProt P00533, L858R/T790M)
Outline: as §1

ErbB4(h) = ErbB4(h) (Homo sapiens, UniProt Q15303)
Outline: as §1

[4] = target: PI3 Kinase (p110α/p85α)(h) (Homo sapiens, UniProt P42336)
Outline: as §1

CK1δ(h) = CK1δ(h) (Homo sapiens, UniProt P48730)
Outline: as §1

SRPK2(h) = SRPK2(h) (Homo sapiens, UniProt P78362)
Outline: as §1

cKit(D816V)(h) = cKit(D816V)(h) (Homo sapiens, UniProt P10721, D816V)
Outline: as §1

Sequence of SRPK2(h) (P78362 whole entry): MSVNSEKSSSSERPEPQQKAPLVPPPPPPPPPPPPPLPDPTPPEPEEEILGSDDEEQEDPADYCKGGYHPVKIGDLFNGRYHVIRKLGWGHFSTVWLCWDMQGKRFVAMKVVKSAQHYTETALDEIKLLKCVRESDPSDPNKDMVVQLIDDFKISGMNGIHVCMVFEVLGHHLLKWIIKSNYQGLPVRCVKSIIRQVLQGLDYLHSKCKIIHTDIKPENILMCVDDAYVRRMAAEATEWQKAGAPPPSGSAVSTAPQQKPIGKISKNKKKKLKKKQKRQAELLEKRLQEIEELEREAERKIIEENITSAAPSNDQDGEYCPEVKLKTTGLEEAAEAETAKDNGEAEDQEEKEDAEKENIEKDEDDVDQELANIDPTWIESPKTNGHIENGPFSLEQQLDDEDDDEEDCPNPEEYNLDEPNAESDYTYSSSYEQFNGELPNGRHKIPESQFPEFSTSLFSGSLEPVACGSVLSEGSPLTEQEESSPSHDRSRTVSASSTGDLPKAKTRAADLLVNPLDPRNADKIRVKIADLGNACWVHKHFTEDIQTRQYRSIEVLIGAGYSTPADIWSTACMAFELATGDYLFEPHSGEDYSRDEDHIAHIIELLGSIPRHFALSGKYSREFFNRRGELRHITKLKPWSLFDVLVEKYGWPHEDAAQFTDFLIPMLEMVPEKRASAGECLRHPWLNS
Sequence of PKBγ(h) (Q9Y243 whole entry): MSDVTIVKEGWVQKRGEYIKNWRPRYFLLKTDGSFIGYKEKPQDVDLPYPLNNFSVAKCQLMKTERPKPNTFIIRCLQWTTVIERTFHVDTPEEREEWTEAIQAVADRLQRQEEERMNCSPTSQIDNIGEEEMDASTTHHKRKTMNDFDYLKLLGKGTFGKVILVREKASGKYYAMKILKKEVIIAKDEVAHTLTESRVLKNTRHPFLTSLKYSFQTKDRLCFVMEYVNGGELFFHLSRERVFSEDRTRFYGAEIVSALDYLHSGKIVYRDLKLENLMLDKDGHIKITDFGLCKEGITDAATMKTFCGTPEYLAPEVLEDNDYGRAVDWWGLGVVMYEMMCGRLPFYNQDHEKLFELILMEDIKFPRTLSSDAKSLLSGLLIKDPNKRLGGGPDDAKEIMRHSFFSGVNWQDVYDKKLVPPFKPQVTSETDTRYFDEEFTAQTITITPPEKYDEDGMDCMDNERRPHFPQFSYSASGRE
Sequence of Met(M1268T)(h) (P08581 25-1408 isoform P08581-2 M1268T): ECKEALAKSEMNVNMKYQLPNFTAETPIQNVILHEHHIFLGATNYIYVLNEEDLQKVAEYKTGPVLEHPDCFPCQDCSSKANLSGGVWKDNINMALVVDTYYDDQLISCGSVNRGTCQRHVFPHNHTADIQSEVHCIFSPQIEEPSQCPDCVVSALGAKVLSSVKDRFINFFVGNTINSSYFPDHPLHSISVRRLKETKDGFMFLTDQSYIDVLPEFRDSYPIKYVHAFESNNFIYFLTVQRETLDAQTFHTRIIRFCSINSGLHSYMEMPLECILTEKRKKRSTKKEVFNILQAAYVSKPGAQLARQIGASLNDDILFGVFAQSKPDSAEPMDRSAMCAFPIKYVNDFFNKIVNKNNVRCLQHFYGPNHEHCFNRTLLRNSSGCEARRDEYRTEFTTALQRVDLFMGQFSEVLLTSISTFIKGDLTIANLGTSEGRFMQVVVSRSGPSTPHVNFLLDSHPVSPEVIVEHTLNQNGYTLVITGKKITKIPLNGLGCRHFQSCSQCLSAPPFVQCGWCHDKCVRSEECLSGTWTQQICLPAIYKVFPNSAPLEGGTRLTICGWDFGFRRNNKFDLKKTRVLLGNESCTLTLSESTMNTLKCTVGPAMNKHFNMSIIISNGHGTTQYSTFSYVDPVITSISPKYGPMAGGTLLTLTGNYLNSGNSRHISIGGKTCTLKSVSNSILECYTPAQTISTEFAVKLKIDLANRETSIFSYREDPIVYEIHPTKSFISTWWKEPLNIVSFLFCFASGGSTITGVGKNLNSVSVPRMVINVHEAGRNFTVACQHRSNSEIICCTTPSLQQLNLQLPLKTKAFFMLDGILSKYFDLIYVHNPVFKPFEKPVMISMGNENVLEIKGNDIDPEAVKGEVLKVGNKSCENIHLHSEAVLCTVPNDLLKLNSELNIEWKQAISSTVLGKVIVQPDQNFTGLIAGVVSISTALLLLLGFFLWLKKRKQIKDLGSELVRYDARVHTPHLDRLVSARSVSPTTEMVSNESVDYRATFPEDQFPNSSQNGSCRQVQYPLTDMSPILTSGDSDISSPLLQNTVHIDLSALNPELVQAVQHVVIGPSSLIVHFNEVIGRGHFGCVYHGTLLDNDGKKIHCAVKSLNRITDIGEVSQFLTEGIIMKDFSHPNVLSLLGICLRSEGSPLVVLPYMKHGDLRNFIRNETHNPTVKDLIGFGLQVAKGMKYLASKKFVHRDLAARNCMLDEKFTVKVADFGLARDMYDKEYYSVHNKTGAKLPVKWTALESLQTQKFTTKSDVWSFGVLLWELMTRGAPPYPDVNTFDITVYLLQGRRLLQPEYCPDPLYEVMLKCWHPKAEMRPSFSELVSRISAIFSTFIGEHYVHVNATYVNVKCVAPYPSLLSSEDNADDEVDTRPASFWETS
Sequence of MAPKAP-K2(h) (P49137 whole entry): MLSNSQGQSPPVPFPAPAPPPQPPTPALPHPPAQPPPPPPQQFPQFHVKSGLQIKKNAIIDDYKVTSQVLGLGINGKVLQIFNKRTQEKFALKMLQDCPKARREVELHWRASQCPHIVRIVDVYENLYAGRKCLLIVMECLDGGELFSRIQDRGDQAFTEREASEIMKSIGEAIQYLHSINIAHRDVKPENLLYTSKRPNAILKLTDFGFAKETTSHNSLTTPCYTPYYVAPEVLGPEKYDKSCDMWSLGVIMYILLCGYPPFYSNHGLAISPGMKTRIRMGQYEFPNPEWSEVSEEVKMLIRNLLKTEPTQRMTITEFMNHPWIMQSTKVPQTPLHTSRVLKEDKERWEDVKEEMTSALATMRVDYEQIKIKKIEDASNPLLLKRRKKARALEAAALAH
Sequence of Arg(m) (Q4JIM5 whole entry): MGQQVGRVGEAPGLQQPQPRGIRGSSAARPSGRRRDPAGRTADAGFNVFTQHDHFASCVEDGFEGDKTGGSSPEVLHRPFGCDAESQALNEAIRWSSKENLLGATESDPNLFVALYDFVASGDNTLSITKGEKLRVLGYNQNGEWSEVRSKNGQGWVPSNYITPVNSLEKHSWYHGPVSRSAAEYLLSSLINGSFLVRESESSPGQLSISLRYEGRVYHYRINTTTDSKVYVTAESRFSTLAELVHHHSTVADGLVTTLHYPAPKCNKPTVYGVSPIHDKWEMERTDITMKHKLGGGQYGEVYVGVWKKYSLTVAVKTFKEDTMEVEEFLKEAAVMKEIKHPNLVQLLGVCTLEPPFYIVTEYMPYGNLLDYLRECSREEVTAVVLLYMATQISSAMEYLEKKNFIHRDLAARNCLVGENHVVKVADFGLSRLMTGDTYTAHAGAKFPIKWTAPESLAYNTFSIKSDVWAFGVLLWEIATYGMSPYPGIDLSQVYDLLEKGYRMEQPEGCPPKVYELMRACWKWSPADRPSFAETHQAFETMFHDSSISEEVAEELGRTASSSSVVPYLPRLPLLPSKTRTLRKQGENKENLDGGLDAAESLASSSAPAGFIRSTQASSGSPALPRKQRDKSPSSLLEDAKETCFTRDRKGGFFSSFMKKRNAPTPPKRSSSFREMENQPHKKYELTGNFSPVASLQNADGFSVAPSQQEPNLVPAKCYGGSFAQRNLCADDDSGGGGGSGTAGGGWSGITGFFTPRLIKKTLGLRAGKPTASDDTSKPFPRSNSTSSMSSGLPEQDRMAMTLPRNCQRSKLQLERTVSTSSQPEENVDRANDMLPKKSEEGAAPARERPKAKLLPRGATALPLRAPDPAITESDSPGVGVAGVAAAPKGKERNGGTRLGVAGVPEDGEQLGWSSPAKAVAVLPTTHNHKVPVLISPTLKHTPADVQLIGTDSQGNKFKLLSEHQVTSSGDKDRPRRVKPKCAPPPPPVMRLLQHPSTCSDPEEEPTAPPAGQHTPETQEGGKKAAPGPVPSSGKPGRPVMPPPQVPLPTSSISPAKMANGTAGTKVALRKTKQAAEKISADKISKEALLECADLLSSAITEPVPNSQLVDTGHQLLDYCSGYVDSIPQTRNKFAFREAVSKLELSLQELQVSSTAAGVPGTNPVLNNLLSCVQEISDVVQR
Sequence of Plk1(h) (P53350 whole entry): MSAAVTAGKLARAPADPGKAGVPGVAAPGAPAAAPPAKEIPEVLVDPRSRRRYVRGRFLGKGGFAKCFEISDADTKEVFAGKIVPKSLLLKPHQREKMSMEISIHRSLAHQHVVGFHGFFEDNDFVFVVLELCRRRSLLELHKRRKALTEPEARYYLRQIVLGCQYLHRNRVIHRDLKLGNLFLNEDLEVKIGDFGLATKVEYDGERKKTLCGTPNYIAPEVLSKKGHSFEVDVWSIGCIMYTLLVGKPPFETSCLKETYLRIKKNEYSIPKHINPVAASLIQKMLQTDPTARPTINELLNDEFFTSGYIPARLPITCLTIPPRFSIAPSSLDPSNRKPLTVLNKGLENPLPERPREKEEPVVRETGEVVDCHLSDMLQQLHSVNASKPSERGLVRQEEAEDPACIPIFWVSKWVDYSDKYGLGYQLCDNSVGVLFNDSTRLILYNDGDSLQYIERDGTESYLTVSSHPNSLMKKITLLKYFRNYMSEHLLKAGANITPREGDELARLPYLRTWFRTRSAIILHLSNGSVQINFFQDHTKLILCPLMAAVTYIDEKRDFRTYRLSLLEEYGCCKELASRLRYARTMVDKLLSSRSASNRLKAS
Sequence of Pim-2(h) (Q9P1W9 whole entry): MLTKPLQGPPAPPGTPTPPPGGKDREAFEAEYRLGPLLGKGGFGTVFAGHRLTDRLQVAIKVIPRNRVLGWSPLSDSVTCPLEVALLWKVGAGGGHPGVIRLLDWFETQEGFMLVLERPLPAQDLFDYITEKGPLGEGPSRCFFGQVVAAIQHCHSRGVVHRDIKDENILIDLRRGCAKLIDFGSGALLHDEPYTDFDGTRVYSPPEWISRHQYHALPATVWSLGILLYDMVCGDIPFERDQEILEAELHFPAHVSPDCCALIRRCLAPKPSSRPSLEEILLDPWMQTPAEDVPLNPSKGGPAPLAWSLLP

Row | SMILES | inhibition at 0.1 µM [1] [%] | inhibition at 0.1 µM (MKK7β(h)) [%] | inhibition at 0.1 µM (PKCδ(h)) [%] | inhibition at 0.1 µM (MAPKAP-K2(h)) [%] | inhibition at 0.1 µM [2] [%] | inhibition at 0.1 µM [3] [%] | inhibition at 0.1 µM (PDGFRα(V561D)(h)) [%] | inhibition at 0.1 µM (Met(M1268T)(h)) [%] | inhibition at 0.1 µM (Arg(m)) [%] | inhibition at 0.1 µM (PKBγ(h)) [%] | inhibition at 0.1 µM (Pim-2(h)) [%] | inhibition at 0.1 µM (cKit(V654A)(h)) [%] | inhibition at 0.1 µM (ZIPK(h)) [%] | inhibition at 0.1 µM (cKit(V560G)(h)) [%] | inhibition at 0.1 µM (PDGFRα(D842V)(h)) [%] | inhibition at 0.1 µM (FGFR1(V561M)(h)) [%] | inhibition at 0.1 µM (HIPK3(h)) [%] | inhibition at 0.1 µM (Plk1(h)) [%] | inhibition at 0.1 µM (PRAK(h)) [%] | inhibition at 0.1 µM (TAO1(h)) [%] | further results
1 | Cc1cc2c(F)c(Oc3nc(Nc4cc(C5CC5)[nH]n4)cc(N4CCN(C)CC4)n3)ccc2[nH]1 [Compound 10] | -1 | -26 | 5 | -7 | -1 | 0 | 86 | 91 | 99 | -10 | -25 | 35 | 1 | 89 | 73 | 101 | -1 | -9 | -24 | 24 | inhibition at 0.1 µM (CDK9/cyclin T1(h)): 22%; inhibition at 0.1 µM (CDK2/cyclinA(h)): 5%; inhibition at 0.1 µM (Met(Y1248C)(h)): 57%; inhibition at 0.1 µM (EGFR(T790M, L858R)(h)): 53%; inhibition at 0.1 µM (ErbB4(h)): 13%; inhibition at 0.1 µM [4]: -1%; inhibition at 0.1 µM (CK1δ(h)): -21%; inhibition at 0.1 µM (SRPK2(h)): 6%; inhibition at 0.1 µM (cKit(D816V)(h)): 33%
2 | Cc1cc2c(F)c(Oc3nc(Nc4cc(C5CC5)[nH]n4)cc(N4CCNCC4)n3)ccc2[nH]1 [Compound 11, N-(5-cyclopropyl-1H-pyrazol-3-yl)-2-((4-fluoro-2-methyl-1H-indol-5-yl)oxy)-6-(piperazin-1-yl)pyrimidin-4-amine] | -1 | -16 | 5 | -10 | 0 | 1 | 72 | 72 | 102 | -18 | 17 | 53 | 7 | 94 | 70 | 101 | -3 | -10 | 6 | 26 | inhibition at 0.1 µM (CDK9/cyclin T1(h)): 32%; inhibition at 0.1 µM (CDK2/cyclinA(h)): 3%; inhibition at 0.1 µM (Met(Y1248C)(h)): 95%; inhibition at 0.1 µM (EGFR(T790M, L858R)(h)): 69%; inhibition at 0.1 µM (ErbB4(h)): -5%; inhibition at 0.1 µM [4]: 5%; inhibition at 0.1 µM (CK1δ(h)): -3%; inhibition at 0.1 µM (SRPK2(h)): 0%; inhibition at 0.1 µM (cKit(D816V)(h)): 38%
